These results are taken from US7109193B2, “Tricyclic diazepines tocolytic oxytocin receptor antagonists” (Wyeth, priority 2001, dated 2006).

What is called inhibition is the drop in the measured response relative to a control, in per cent.

Structures are written as SMILES.

T1 sequence (P30518 whole entry): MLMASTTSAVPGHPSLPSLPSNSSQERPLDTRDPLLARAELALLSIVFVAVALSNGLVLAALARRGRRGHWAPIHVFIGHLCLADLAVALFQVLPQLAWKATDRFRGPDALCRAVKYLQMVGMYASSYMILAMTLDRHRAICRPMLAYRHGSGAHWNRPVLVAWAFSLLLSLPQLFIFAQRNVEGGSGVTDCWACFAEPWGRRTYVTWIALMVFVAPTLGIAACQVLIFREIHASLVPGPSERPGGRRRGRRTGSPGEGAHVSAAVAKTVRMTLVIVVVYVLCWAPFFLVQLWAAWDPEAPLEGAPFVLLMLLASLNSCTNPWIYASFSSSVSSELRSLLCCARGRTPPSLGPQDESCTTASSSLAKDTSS

This assay addresses T1, human vasopressin V2 receptor subtype (Homo sapiens, UniProt P30518).
T1 construct: host or cells: CHO cells (pZeoSV vector)
Briefly: Vasopressin binding in Chinese Hamster Ovary cell membranes expressing human vasopressin V2 subtype receptors. To be noted: 100 nM, CHO cell membranes, [3H]arginine vasopressin, values without parentheses. An outline of the steps:
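Radioligand displacement on membranes from CHO cells stably expressing human V2 receptor, 25 to 50 μg protein/well, in 50 mM Tris-HCl pH 7.4 with MgCl2, BSA and protease inhibitors. [^3H]arginine vasopressin (8 nM working solution) incubated 60 min at room temperature; bound label measured by filtration and scintillation counting.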
For `Cc1ccccc1-c1ccc(C(=O)N2Cc3ccc(C(=O)N4CCN(CCCN(C)C)CC4)n3Cc3ccccc32)cc1C` [Example 247, {4-[3-(Dimethylamino)propyl]-1-piperazinyl}{10-[(2,2′-dimethyl[1,1′-biphenyl]-4-yl)carbonyl]-10,11-dihydro-5H-pyrrolo[2,1-c][1,4]benzodiazepin-3-yl}methanone], the inhibition at 0.1 µM amounted to 21%.

Regarding `COc1cc(-c2ccccc2C)c(Cl)cc1C(=O)N1Cc2ccc(C(=O)NCCCN(C)C)n2Cc2ccccc21` [Example 78, 10-[(6-Chloro-3-methoxy-2′-methyl[1,1′-biphenyl]-4-yl)carbonyl]-N-[3-(dimethylamino)propyl]-10,11-dihydro-5H-pyrrolo[2,1-c][1,4]benzodiazepine-3-carboxamide], the inhibition at 0.1 µM came out at 14%.

Turning to `COc1cccc(-c2ccc(C(=O)N3Cc4ccc(C(=O)N5CCN(C)CC5)n4Cc4ccccc43)cc2C)c1` [Example 51, {10-[(3′-Methoxy-2-methyl[1,1′-biphenyl]-4-yl)carbonyl]-10,11-dihydro-5H-pyrrolo[2,1-c][1,4]benzodiazepin-3-yl}(4-methyl-1-piperazinyl)methanone], the inhibition at 0.1 µM worked out at 17%.

In the case of `COc1cc(C(=O)N2Cc3ccc(C(=O)N4CCN(C)CC4)n3Cc3ccccc32)ccc1-c1cccc2ccccc12` [Example 55, {10-[3-Methoxy-4-(1-naphthyl)benzoyl]-10,11-dihydro-5H-pyrrolo[2,1-c][1,4]benzodiazepin-3-yl}(4-methyl-1-piperazinyl)methanone], the inhibition at 0.1 µM stood at 30%.

For `COc1cc(C(=O)N2Cc3cccn3Cc3ccccc32)ccc1-c1ccccc1C(F)(F)F` [Example 19D, (10,11-Dihydro-5H-pyrrolo[2,1-c][1,4]benzodiazepin-10-yl)-(2-methoxy-2′-trifluoromethyl-[1,1′-biphenyl]-4-yl)-methanone], the inhibition at 0.1 µM was 84%.

Regarding `CN(C)CCCN1CCN(C(=O)c2ccc3n2Cc2ccccc2N(C(=O)c2ccc(-c4cccc5ccccc45)cc2Cl)C3)CC1` [Example 256, {10-[2-Chloro-4-(1-naphthyl)benzoyl]-10,11-dihydro-5H-pyrrolo[2,1-c][1,4]benzodiazepin-3-yl}{4-[3-(dimethylamino)propyl]-1-piperazinyl}methanone], the inhibition at 0.1 µM amounted to 40%.

For the compound `COc1cccc(-c2cc(OC)c(C(=O)N3Cc4ccc(C(=O)N5CCCN(C)CC5)n4Cc4ccccc43)cc2Cl)c1` [Example 67, {10-[(6-Chloro-3,3′-dimethoxy[1,1′-biphenyl]-4-yl)carbonyl]-10,11-dihydro-5H-pyrrolo[2,1-c][1,4]benzodiazepin-3-yl}(4-methyl-1,4-diazepan-1-yl)methanone], the inhibition at 0.1 µM stood at 4%.

Consider `COc1cccc(-c2cc(OC)c(C(=O)N3Cc4ccc(C(=O)N5CCN(C)CC5)n4Cc4ccccc43)cc2Cl)c1` [Example 54, {10-[(6-Chloro-3,3′-dimethoxy[1,1′-biphenyl]-4-yl)carbonyl]-10,11-dihydro-5H-pyrrolo[2,1-c][1,4]benzodiazepin-3-yl}(4-methyl-1-piperazinyl)methanone], for which the inhibition at 0.1 µM came to 7%.

Consider `CC(C)N1CCN(C(=O)c2ccc3n2Cc2ccccc2N(C(=O)c2ccc(-c4cccc5ccccc45)cc2Cl)C3)CC1` [Example 243, {10-[2-Chloro-4-(1-naphthyl)benzoyl]-10,11-dihydro-5H-pyrrolo[2,1-c][1,4]benzodiazepin-3-yl}(4-isopropyl-1-piperazinyl)methanone], for which the inhibition at 0.1 µM worked out at 21%.

Consider `COc1cc(C(=O)N2Cc3ccc(C(=O)N4CCCN(C)CC4)n3Cc3ccccc32)ccc1-c1cccc2ccccc12` [Example 68, {10-[3-Methoxy-4-(1-naphthyl)benzoyl]-10,11-dihydro-5H-pyrrolo[2,1-c][1,4]benzodiazepin-3-yl}(4-methyl-1,4-diazepan-1-yl)methanone], for which the inhibition at 0.1 µM was determined as 29%.

Turning to `COc1ccccc1-c1ccc(C(=O)N2Cc3ccc(C(=O)N[C@@H](Cc4c[nH]cn4)C(N)=O)n3Cc3ccccc32)cc1` [Example 285, N-[(1S)-2-Amino-1-(1H-imidazol-4-ylmethyl)-2-oxoethyl]-10-[(2′-methoxy[1,1′-biphenyl]-4-yl)carbonyl]-10,11-dihydro-5H-pyrrolo[2,1-c][1,4]benzodiazepine-3-carboxamide], the inhibition at 0.1 µM was 32%.

Regarding `Cc1ccccc1-c1ccc(C(=O)N2Cc3ccc(C(=O)NCCCN(C)C)n3Cc3ccccc32)cc1` [Example 76, N-[3-(Dimethylamino)propyl]-10-[(2′-methyl[1,1′-biphenyl]-4-yl)carbonyl]-10,11-dihydro-5H-pyrrolo[2,1-c][1,4]benzodiazepine-3-carboxamide], the inhibition at 0.1 µM stood at 17%.

Regarding `Cc1cc(C(=O)N2Cc3ccc(C(=O)N[C@@H](Cc4c[nH]cn4)C(N)=O)n3Cc3ccccc32)ccc1-c1ccccc1C(F)(F)F` [Example 284, N-[(1S)-2-Amino-1-(1H-imidazol-4-ylmethyl)-2-oxoethyl]-10-{[2-methyl-2′-(trifluoromethyl)[1,1′-biphenyl]-4-yl]carbonyl}-10,11-dihydro-5H-pyrrolo[2,1-c][1,4]benzodiazepine-3-carboxamide], the inhibition at 0.1 µM was determined as 12%.

With `COc1cc(C(=O)N2Cc3ccc(C(=O)NCCCN(C)C)n3Cc3ccccc32)ccc1-c1ccccc1C` [Example 77, N-[3-(Dimethylamino)propyl]-10-[(2-methoxy-2′-methyl[1,1′-biphenyl]-4-yl)carbonyl]-10,11-dihydro-5H-pyrrolo[2,1-c][1,4]benzodiazepine-3-carboxamide], the inhibition at 0.1 µM is 28%.

Turning to `Cc1ccccc1-c1ccc(C(=O)N2Cc3ccc(C(=O)NCCCN(C)C)n3Cc3ccccc32)cc1C` [Example 73, N-[3-(Dimethylamino)propyl]-10-[(2,2′-dimethyl[1,1′-biphenyl]-4-yl)carbonyl]-10,11-dihydro-5H-pyrrolo[2,1-c][1,4]benzodiazepine-3-carboxamide], the inhibition at 0.1 µM was found to be 21%.

Consider `COc1ccccc1-c1ccc(C(=O)N2Cc3ccc(C(=O)n4ccnc4)n3Cc3ccccc32)cc1C` [Example 292, 1H-Imidazol-1-yl-{10-[(2′-methoxy-2-methyl[1,1′-biphenyl]-4-yl)carbonyl]-10,11-dihydro-5H-pyrrolo[2,1-c][1,4]benzodiazepin-3-yl}methanone], for which the inhibition at 0.1 µM was -7%.

In the case of `COc1ccccc1-c1ccc(C(=O)N2Cc3ccc(C(=O)N[C@@H](Cc4c[nH]cn4)C(N)=O)n3Cc3ccccc32)cc1C` [Example 288, N-[(1S)-2-Amino-1-(1H-imidazol-4-ylmethyl)-2-oxoethyl]-10-[(2′-methoxy-2-methyl[1,1′-biphenyl]4-yl)carbonyl]-10,11-dihydro-5H-pyrrolo[2,1-c][1,4]benzodiazepine-3-carboxamide], the inhibition at 0.1 µM came out at 32%.

As to `COc1cc(-c2ccccc2C)c(Cl)cc1C(=O)N1Cc2ccc(C(=O)N[C@@H]3CN4CCC3CC4)n2Cc2ccccc21` [Example 297, N-[(3S)-1-Azabicyclo[2.2.2]oct-3-yl]-10-[(6-chloro-3-methoxy-2′-methyl-[1,1′-biphenyl]-4-yl)carbonyl]-10,11-dihydro-5H-pyrrolo[2,1-c][1,4]benzodiazepine-3-carboxamide], the inhibition at 0.1 µM was determined as 13%.

Turning to `COc1ccccc1-c1ccc(C(=O)N2Cc3ccc(C(=O)N4CCN(CCCN(C)C)CC4)n3Cc3ccccc32)cc1OC` [Example 254, {10-[(2,2′-Dimethoxy[1,1′-biphenyl]-4-yl)carbonyl]-10,11-dihydro-5H-pyrrolo[2,1-c][1,4]benzodiazepin-3-yl}{4-[3-(dimethylamino)propyl]-1-piperazinyl}methanone], the inhibition at 0.1 µM is -4%.

`COc1cc(C(=O)N2Cc3ccc(C(=O)N4CCCN(C)CC4)n3Cc3ccccc32)ccc1-n1c(C)ccc1C` [Example 307, {10-[4-(2,5-Dimethyl-1H-pyrrol-1-yl)-3-methoxybenzoyl]-10,11-dihydro-5H-pyrrolo[2,1-c][1,4]benzodiazepin-3-yl}(4-methyl-1,4-diazepan-1-yl)methanone]: the inhibition at 0.1 µM worked out at 8%.

As to `COc1cc(C(=O)N2Cc3ccc(C(=O)N(C)CCN(C)C)n3Cc3ccccc32)ccc1-n1c(C)ccc1C` [Example 309, N-[2-(Dimethylamino)ethyl]-10-[4-(2,5-dimethyl-1H-pyrrol-1-yl)-3-methoxybenzoyl]-N-methyl-10,11-dihydro-5H-pyrrolo[2,1-c][1,4]benzodiazepine-3-carboxamide], the inhibition at 0.1 µM was 7%.

Take `Cc1cc(C(=O)N2Cc3cccn3Cc3ncccc32)ccc1-c1ccccc1C(F)(F)F` [Example 323F, (2-Methyl-2′-trifluoromethyl-[1,1′-biphenyl]-4-yl)-(4H,10H-3a,5,9-triaza-benzo[f]azulen-9-yl)-methanone]: the inhibition at 0.1 µM was 5%.

Consider `Cc1cc(C(=O)N2Cc3ccc(C(=O)N[C@H]4CN5CCC4CC5)n3Cc3ccccc32)ccc1-c1ccccc1C(F)(F)F` [Example 301, N-[(3R)-1-Azabicyclo[2.2.2]oct-3-yl]-10-{[2-methyl-2′-(trifluoromethyl)[1,1′-biphenyl]-4-yl]carbonyl}-10,11-dihydro-5H-pyrrolo[2,1-c][1,4]benzodiazepine-3-carboxamide], for which the inhibition at 0.1 µM is 9%.

With `COc1cccc(-c2cc(OC)c(C(=O)N3Cc4ccc(C(=O)N[C@@H](Cc5c[nH]cn5)C(N)=O)n4Cc4ccccc43)cc2Cl)c1` [Example 287, N-[(1S)-2-Amino-1-(1H-imidazol-4-ylmethyl)-2-oxoethyl]-10-[(6-chloro-3,3′-dimethoxy[1,1′-biphenyl]-4-yl)carbonyl]-10,11-dihydro-5H-pyrrolo[2,1-c][1,4]benzodiazepine-3-carboxamide], the inhibition at 0.1 µM amounted to 26%.

For the compound `COc1cc(C(=O)N2Cc3ccc(C(=O)NCCCN(C)C)n3Cc3ccccc32)ccc1-n1c(C)ccc1C` [Example 308, N-[3-(Dimethylamino)propyl]-10-[4-(2,5-dimethyl-1H-pyrrol-1-yl)-3-methoxybenzoyl]-10,11-dihydro-5H-pyrrolo[2,1-c][1,4]benzodiazepine-3-carboxamide], the inhibition at 0.1 µM was 1%.
